Laboratory results from US7579335B2, “Androstane 17α-carbonate derivatives for use in the treatment of allergic and inflammatory conditions” (Glaxo Group Limited, priority 2005, dated 2009).

Legend:
glucocorticoid receptor [1] = biological target: T1, glucocorticoid receptor (Homo sapiens, UniProt P04150); assay: Assay for transrepression activity of the glucocorticoid agonists (NF-κB/ELAM-sPAP reporter, TNF stimulated); assay type: cell-based; conditions: A549 cells, NF-κB responsive ELAM promoter-sPAP reporter; compound 1 hour, then TNF 10 ng/ml for 16 hours; read-out: pEC50 transrepression (converted)
T1 sequence (P04150 1-777): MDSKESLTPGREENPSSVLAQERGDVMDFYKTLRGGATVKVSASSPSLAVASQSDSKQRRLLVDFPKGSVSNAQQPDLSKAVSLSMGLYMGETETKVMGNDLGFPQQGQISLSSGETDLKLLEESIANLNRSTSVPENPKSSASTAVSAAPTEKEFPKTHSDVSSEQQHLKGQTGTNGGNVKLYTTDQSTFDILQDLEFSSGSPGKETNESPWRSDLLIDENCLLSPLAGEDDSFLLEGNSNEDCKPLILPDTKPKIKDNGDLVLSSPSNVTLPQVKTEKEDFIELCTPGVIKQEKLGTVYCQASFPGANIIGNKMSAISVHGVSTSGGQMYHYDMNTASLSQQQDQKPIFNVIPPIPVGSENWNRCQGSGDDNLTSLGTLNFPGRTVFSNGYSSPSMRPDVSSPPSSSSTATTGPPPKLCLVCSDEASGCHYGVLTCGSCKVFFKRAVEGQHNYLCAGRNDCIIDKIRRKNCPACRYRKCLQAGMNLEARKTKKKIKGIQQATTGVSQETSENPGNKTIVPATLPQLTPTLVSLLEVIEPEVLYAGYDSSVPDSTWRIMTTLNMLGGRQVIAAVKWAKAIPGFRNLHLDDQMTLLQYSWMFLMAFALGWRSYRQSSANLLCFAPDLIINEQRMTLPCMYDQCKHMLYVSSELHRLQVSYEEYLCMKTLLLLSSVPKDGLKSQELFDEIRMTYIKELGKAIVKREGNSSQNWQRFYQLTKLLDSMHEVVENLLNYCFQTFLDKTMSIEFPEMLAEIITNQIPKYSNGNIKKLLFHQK
Protocol: Assay for Transrepression Activity of the Glucocorticoid Agonists
The functional assay based on that described by K. P. Ray et al., Biochem J. (1997), 328, 707-715 provides a measure of transrepressive activity of a glucocorticoid agonist. A549 cells stably transfected with a reporter gene containing the NF-κB responsive elements from the ELAM gene promoter coupled to sPAP (secreted alkaline phosphatase) are treated with test compounds at appropriate doses for 1 hour at 37° C. The cells are then stimulated with tumour necrosis factor (TNF, 10 ng/ml) for 16 hours, at which time the amount of alkaline phosphatase produced is measured by a standard colourimetric assay. Dose response curves were constructed from which EC50 values were estimated.

glucocorticoid receptor [2] = biological target: T1, glucocorticoid receptor; assay: Assay for transactivation activity of the glucocorticoid agonists (MMTV-LTR renilla luciferase reporter); assay type: cell-based; conditions: A549, A549 cells, 6 hour at 37° C., read-out: maximal response relative to Dexamethasone (100%), transactivation
Protocol: Assay for Transactivation Activity of the Glucocorticoid Agonists
The functional assay based on that described by R. J. H. Austin et al., Eur Resp J. (2002), 20, 1386-1392 measures the ability of compounds to directly transactivate gene expression. A549 cells stably transfected with a reporter gene containing the glucocorticoid responsive region of the mouse mammary tumour virus long terminal repeat (MMTV-LTR) coupled to renilla luciferase were treated with test compounds at appropriate doses for 6 hour at 37° C. The amount of luciferase activity present within the cells is then determined by measuring the light emitted following incubation with a suitable substrate. Dose response curves were constructed from which EC50 values were estimated and from which maximal responses are calculated relative to Dexamethasone (100%).

EC50 (glucocorticoid receptor [1]) | SMILES | Emax (glucocorticoid receptor [2])
< 100 pM | C[C@@H]1C[C@H]2[C@@H]3C[C@H](F)C4=CC(=O)C=C[C@]4(C)[C@@]3(F)[C@@H](O)C[C@]2(C)[C@@]1(OC(=O)OC(C)(C)C)C(=O)OCC#N [Example 1, Cyanomethyl (6α,11β,16α,17α)-17-({[(1,1-dimethylethyl)oxy]carbonyl}oxy)-6,9-difluoro-11-hydroxy-16-methyl-3-oxoandrosta-1,4-diene-17-carboxylate] | 
< 100 pM | CCC(C)(C)OC(=O)O[C@]1(C(=O)OCC#N)[C@H](C)C[C@H]2[C@@H]3C[C@H](F)C4=CC(=O)C=C[C@]4(C)[C@@]3(F)[C@@H](O)C[C@@]21C [Example 2, Cyanomethyl (6α,11β,16α,17α)-17-({[(1,1-dimethylpropyl)oxy]carbonyl}oxy)-6,9-difluoro-11-hydroxy-16-methyl-3-oxoandrosta-1,4-diene-17-carboxylate] | 
 | CC[C@H]1CC[C@H](OC(=O)O[C@]2(C(=O)OCC#N)[C@H](C)C[C@H]3[C@@H]4C[C@H](F)C5=CC(=O)C=C[C@]5(C)[C@@]4(F)[C@@H](O)C[C@@]32C)CC1 (relative stereo) [Example 19, Cyanomethyl (6α,11β,16α,17α)-17-({[(trans-4-ethylcyclohexyl)oxy]carbonyl}oxy)-6,9-difluoro-11-hydroxy-16-methyl-3-oxoandrosta-1,4-diene-17-carboxylate] | < 40%
< 316 pM | CCC(CC)OC(=O)O[C@]1(C(=O)OCC#N)[C@H](C)C[C@H]2[C@@H]3C[C@H](F)C4=CC(=O)C=C[C@]4(C)[C@@]3(F)[C@@H](O)C[C@@]21C [Example 3, Cyanomethyl (6α,11β,16α,17α)-17-({[(1-ethylpropyl)oxy]carbonyl}oxy)-6,9-difluoro-11-hydroxy-16-methyl-3-oxoandrosta-1,4-diene-17-carboxylate] | 
< 316 pM | C[C@@H]1C[C@H]2[C@@H]3C[C@H](F)C4=CC(=O)C=C[C@]4(C)[C@@]3(F)[C@@H](O)C[C@]2(C)[C@@]1(OC(=O)OCC(C)(C)C)C(=O)OCC#N [Example 6, Cyanomethyl (6α,11β,16α,17α)-17-({[(2,2-dimethylpropyl)oxy]carbonyl}oxy)-6,9-difluoro-11-hydroxy-16-methyl-3-oxoandrosta-1,4-diene-17-carboxylate] | 
< 316 pM | CC(C)C(OC(=O)O[C@]1(C(=O)OCC#N)[C@H](C)C[C@H]2[C@@H]3C[C@H](F)C4=CC(=O)C=C[C@]4(C)[C@@]3(F)[C@@H](O)C[C@@]21C)C(C)C [Example 4, Cyanomethyl (6α,11β,16α,17α)-6,9-difluoro-11-hydroxy-16-methyl-17-[({[2-methyl-1-(1-methylethyl)propyl]oxy}carbonyl)oxy]-3-oxoandrosta-1,4-diene-17-carboxylate] | 
 | CC(OC(=O)O[C@]1(C(=O)OCC#N)[C@H](C)C[C@H]2[C@@H]3C[C@H](F)C4=CC(=O)C=C[C@]4(C)[C@@]3(F)[C@@H](O)C[C@@]21C)C(C)(C)C (stereo partly drawn) [Example 23, Cyanomethyl (6α,11β,16α,17α)-6,9-difluoro-11-hydroxy-16-methyl-3-oxo-17-({[(1,2,2-trimethylpropyl)oxy]carbonyl}oxy)androsta-1,4-diene-17-carboxylate] | < 40%
 | CC1CC2C3CC(F)C4=CC(=O)C=CC4(C)C3(F)C(O)CC2(C)C1(OC(=O)OC1CC2CCC1(C)C2(C)C)C(=O)OCC#N (stereo not drawn) [Example 22, Cyanomethyl (6α,11β,16α,17α)-6,9-difluoro-11-hydroxy-16-methyl-3-oxo-17-[({[(1RS,2RS,4RS)-1,7,7-trimethylbicyclo[2.2.1]hept-2-yl]oxy}carbonyl)oxy]androsta-1,4-diene-17-carboxylate] | < 40%
 | CC[C@H]1CC[C@@H](OC(=O)O[C@]2(C(=O)OCC#N)[C@H](C)C[C@H]3[C@@H]4C[C@H](F)C5=CC(=O)C=C[C@]5(C)[C@@]4(F)[C@@H](O)C[C@@]32C)CC1 (relative stereo) [Example 20, Cyanomethyl (6α,11β,16α,17α)-17-({[(cis-4-ethylcyclohexyl)oxy]carbonyl}oxy)-6,9-difluoro-11-hydroxy-16-methyl-3-oxoandrosta-1,4-diene-17-carboxylate] | < 40%
 | CCCC(OC(=O)O[C@]1(C(=O)OCC#N)[C@H](C)C[C@H]2[C@@H]3C[C@H](F)C4=CC(=O)C=C[C@]4(C)[C@@]3(F)[C@@H](O)C[C@@]21C)C(C)C (stereo partly drawn) [Example 24, Cyanomethyl (6α,11β,16α,17α)-6,9-difluoro-11-hydroxy-16-methyl-17-[({[1-(1-methylethyl)butyl]oxy}carbonyl)oxy]-3-oxoandrosta-1,4-diene-17-carboxylate] | < 40%
 | CCCC(CCC)OC(=O)O[C@]1(C(=O)OCC#N)[C@H](C)C[C@H]2[C@@H]3C[C@H](F)C4=CC(=O)C=C[C@]4(C)[C@@]3(F)[C@@H](O)C[C@@]21C [Example 21, Cyanomethyl (6α,11β16α,17α)-6,9-difluoro-11-hydroxy-16-methyl-3-oxo-17-({[(1-propylbutyl)oxy]carbonyl}oxy)androsta-1,4-diene-17-carboxylate] | < 40%
< 316 pM | CC(C)C1CCC(OC(=O)O[C@]2(C(=O)OCC#N)[C@H](C)C[C@H]3[C@@H]4C[C@H](F)C5=CC(=O)C=C[C@]5(C)[C@@]4(F)[C@@H](O)C[C@@]32C)CC1 (single isomer, unassigned) [Example 11B, Cyanomethyl (6α,11β,16α,17α)-6,9-difluoro-11-hydroxy-16-methyl-17-[({[4-(1-methylethyl)cyclohexyl]oxy}carbonyl)oxy]-3-oxoandrosta-1,4-diene-17-carboxylate] | 

SMILES | EC50 (glucocorticoid receptor [1]) | Emax (glucocorticoid receptor [2])
CCC(OC(=O)O[C@]1(C(=O)OCC#N)[C@H](C)C[C@H]2[C@@H]3C[C@H](F)C4=CC(=O)C=C[C@]4(C)[C@@]3(F)[C@@H](O)C[C@@]21C)C(C)C (stereo partly drawn) [Example 7, Cyanomethyl (6α,11β,16α,17α)-17-({[(1-ethyl-2-methylpropyl)oxy]carbonyl}oxy)-6,9-difluoro-11-hydroxy-16-methyl-3-oxoandrosta-1,4-diene-17-carboxylate] | < 316 pM | < 40%
CCC(CC)COC(=O)O[C@]1(C(=O)OCC#N)[C@H](C)C[C@H]2[C@@H]3C[C@H](F)C4=CC(=O)C=C[C@]4(C)[C@@]3(F)[C@@H](O)C[C@@]21C [Example 5, Cyanomethyl (6α,11β,16α,17α)-17-({[(2-ethylbutyl)oxy]carbonyl}oxy)-6,9-difluoro-11-hydroxy-16-methyl-3-oxoandrosta-1,4-diene-17-carboxylate] | < 316 pM | < 40%
C[C@@H]1C[C@H]2[C@@H]3C[C@H](F)C4=CC(=O)C=C[C@]4(C)[C@@]3(F)[C@@H](O)C[C@]2(C)[C@@]1(OC(=O)OC1CCCC1)C(=O)OCC#N [Example 9, Cyanomethyl (6α,11β,16α,17α)-17-{[(cyclopentyloxy)carbonyl]oxy}-6,9-difluoro-11-hydroxy-16-methyl-3-oxoandrosta-1,4-diene-17-carboxylate] | < 316 pM | < 40%
CC(C)C(C)OC(=O)O[C@]1(C(=O)OCC#N)[C@H](C)C[C@H]2[C@@H]3C[C@H](F)C4=CC(=O)C=C[C@]4(C)[C@@]3(F)[C@@H](O)C[C@@]21C (stereo partly drawn) [Example 8, Cyanomethyl (6α,11β,16α,17α)-17-({[(1,2-dimethylpropyl)oxy]carbonyl}oxy)-6,9-difluoro-11-hydroxy-16-methyl-3-oxoandrosta-1,4-diene-17-carboxylate] | < 316 pM | < 40%
